From ChEMBL document CHEMBL4837230, “Thiophene-2-carboxamide derivatives of anthraquinone: A new potent antitumor chemotype” (Eur J Med Chem, 2021)
Active and inactive are the calls of the source. The rule behind the calls is not given here.

Tests used:
[1] = tested on: K562; test: Cytotoxicity in human K562 cells assessed as reduction in cell viability at 0.5 uM incubated for 72 hrs by propidium iodide staining based flow cytometric analysis; type: functional
[2] = tested on: K562; test: Cytotoxicity in human K562 cells assessed as reduction in cell viability at 2.5 uM incubated with compound for 60 mins followed by cell washing and measured after72 hrs by propidium iodide staining based flow cytometric analysis; type: functional; details: 1 h
[3] = tested on: K562; test: Cytotoxicity in human K562 cells assessed as reduction in cell viability at 0.5 uM incubated with compound for 120 mins followed by cell washing and measured after 72 hrs by propidium iodide staining based flow cytometric analysis; type: functional; details: 2 h
[4] = tested on: Calf thymus DNA; test: Binding affinity to calf thymus double strand DNA incubated for 5 mins by spectrophotometry; type: nucleic-acid assay; details: Bos taurus
[5] = tested on: K562; test: Induction of cell cycle arrest in human K562 cells assessed as increase in accumulation at sub-G1 phase at 2.5 uM after 2 hrs by flow cytometric analysis (reference value: 15.2%); type: functional

Structure (SMILES): N[C@H]1CCN(C(=O)c2cc3c(O)c4c(c(O)c3s2)C(=O)c2ccccc2C4=O)C1
- Activity [1]: 77.6%
- Activity [2]: 63.4%
- Activity [3]: 8.7%
- Activity [4]: inactive
- Activity [5]: 15.9%
